Source: patent publication US20160095923A1, “ORAL COMPOSITION COMPRISNG (+)-CATECHIN” (VALORE, priority 2013, published 2016)

Legend:
[1] = Bioavailability after oral administration or intravenous injection in Wistar rats (free/total polyphenol in plasma, LC-MS/MS)
Protocol: (§1) The experimental results described below were obtained on the basis of a study carried out in healthy human beings and in healthy Wistar rats weighing approximately 250 grams.
An acclimation period was observed before beginning the experiments.
The rats received an administration per os of a volume of 5 ml of a solution of active product.
(§2) With regard to taking the blood samples from the rats and from the human beings, the blood was collected in tubes internally coated with EDTA and was then centrifuged at 3000 rpm (revolutions per minute) at ambient temperature for 45 min, and then for 15 min at a temperature of 4° C. The plasma was then collected and stored at −70° C. before analysis.
(§3) The analytical technique (LC-MS/MS for Liquid Chromatography coupled to tandem Mass Spectrometry) for measuring the active substance in the blood was based on the method described by Mata-Bilbao et al., published in 2007 in the Journal of Agricultural and Food Chemistry, volume 55, page 8857.
(§4) The free (+)-catechin was extracted from the plasma with a solution of phosphoric acid, EDTA and ascorbic acid and was then purified by SPE (solid phase extraction); in particular, it is an Oasis™ HLB extraction which is analyzed by LC-MS/MS. The quantification was carried out according to a standard calibration procedure with (+/−)-catechin-2,3,4-^13C3 as internal standard (SI).
The procedure is identical with regard to the extraction and the quantification of free quercetin or ECGC in the blood.
With regard to the extraction and quantification of the total (+)-catechin, the procedure is the same as that applied to the free (+)-catechin, with the exception of the fact that an additional step prior to the purification by SPE is carried out.
Each of the mixtures is then solubilized in water.
Each of the mixtures is solubilized in water.

rat skin = test: Total incorporation and incorporation into collagen of 3H-proline in the skin; format: in vivo, Wistar rats; conditions: 100 mg/kg by gavage for 5 days; for level of incorporation into collagen (IC) of 3H-hydroxyproline in rat skin / level of total incorporation (IT) of 3H-hydroxyproline in rat skin: treated subgroup
Protocol: To do this, a study was carried out in vivo on a batch of 24 female Wistar rats weighing from 95 to 115 g, divided into two groups C and D, each of 12 rats. For each group, the radioactive 3H-hydroxyproline, the specific activity of which is 13.6 Ci/10^−3 mol, was administered to all the animals by intraperitoneal injection of proline-L-(5-3H) at a dose, relative to the weight of the individuals, of 1 mCi/kg, which represents an activity in terms of radioactive 3H-proline of 100 μCi/individual.
6 rats of each group received a treatment based on monomeric (+)-catechin by gavage in a proportion of 100 mg/kg for 5 days before sacrifice. […] The group C received monomeric (+)-catechin hydrochlorolysinate, while the group D received monomeric (+)-catechin ascorbolysinate.
In table 8, the level of incorporation is measured by the number of disintegrations of the radioactive 3H-hydroxyproline per minute (dpm) per mg of dry weight. The higher this number, the higher the concentration of 3H-hydroxyproline.
In this comparative example, a group E of 12 Wistar rats weighing from 95 to 115 g, in which radioactive 3H-hydroxyproline, the specific activity of which is 13.6 Ci/10^−3 mol, was administered to all the individuals by intraperitoneal injection of proline-L-(5-3H) at a dose, relative to the weight of the individuals, of 1 mCi/kg, which represents an activity in terms of radioactive 3H-proline of 100 ρCi/individual.
6 rats of each group received a treatment based on pure monomeric (+)-catechin by gavage in a proportion of 100 mg/kg for 5 days before sacrifice.
In table 9, the level of incorporation is measured by the number of disintegrations of the radioactive 3H-hydroxyproline per minute (dpm) per mg of dry weight. The higher this number, the higher the concentration of 3H-hydroxyproline.

[2] = system: cancer patients (lymphoplasmocytic lymphoma; clear cell renal carcinoma); test: Treatment of patients suffering from cancer with 500 mg [C:Lys:HCl] complex salt tablet per day; format: in vivo, human; conditions: for IgM level in the blood: lymphoplasmocytic lymphoma, 500 mg/day
Protocol: In the first patient a lymphoplasmocytic lymphoma (of Waldenström macroglobulinemia type) was detected during a post-operative blood test on day D0. The diagnosis is based on the electrophoretic detection of a monoclonal peak of immunoglobulins (IgM). This diagnosis was reconfirmed and the peak was assayed during a second analysis using the same detection by electrophoresis.
These immunoglobulins are found at a high concentration in the blood and in the urine. They therefore constitute real tumor markers. The assaying thereof gives an account of the number of sick cells and the extent of the disease and, consequently, makes it possible to monitor its progression under treatment.
Successive blood tests gave the following data for the IgM assay (in mg per 100 ml of plasma):
In the second patient, a left subclavicular cervical adenopathy was first of all detected on day D0. Next, 2 weeks later, a left renal adenocarcinoma was detected for this patient, which was followed by a nephrectomy of the left kidney 3 days after the detection of the adenocarcinoma in this kidney.
Thereafter, on day D0+3 months, a left cervical lymph node dissection is performed on the patient. This procedure was followed by a series of 15 radiotherapy sessions.
Starting from day D0+15 months (that is to say on day DT), the patient was orally administered a tablet of 500 mg of (+)-catechin hydrochlorolysinate per day.

[3] = Bioavailability after oral administration in human beings (free monomeric (+)-catechin in plasma, LC-MS/MS); conditions: in vivo, po
Protocol: as §1, §2, §3, §4
This complex salt is administered to a group A of 5 healthy volunteers.
This ct parameter makes it possible to calculate, from the data of table 1, the bioavailability of the (+)-catechin expressed in ng h/ml.

[4] = system: gastric ulcers in Mastomys; test: Incidence of gastric ulcers and histamine level in the gastric mucosa in ovalbumin-sensitized Mastomys; format: in vivo; conditions: for histamine level (HL) in the gastric mucosa / number of animals exhibiting a gastric ulcer (NU): n = 12
Protocol: Mastomys in fact has a special system of cells which store histamine in the gastric mucosa; these cells can give rise to carcinoid tumors.
In this example, a sample of n=48 Mastomys are sensitized a first time by intraperitoneal injection of 3 μg of ovalbumin dissolved in 0.2 ml of saline solution containing 1 mg of aluminum hydroxide the ovalbumin which brings about anti-immunoglobulin E(IgE) and G(IgG) antibodies. After 7 days, a second injection of 1 mg of ovalbumin in 0.01 ml of saline solution is given in the gastric mucosa at the level of the corpus of the anesthetized animals, which causes an ulcerated lesion at the actual site of the injection.
The 48 rats are divided up into three groups: one of 24 and two of 12 individuals. The first group of 24 individuals (G1) received a placebo (concentrated NaCl solution at 0.15 M).
The histamine level is measured for the G1, G2 and G3 groups on the basis of a sample of n=12 individuals.

[5] = free catechin, per os, dose equivalent to 100 mg/kg catechin, 5 rats
[6] = oral administration versus placebo

Compound: Cl.Cl.Cl.Cl.Cl.NCCCCC(N)C(=O)O.NCCCCC(N)C(=O)O.NCCCCC(N)C(=O)O.NCCCCC(N)C(=O)O.NCCCCC(N)C(=O)O.Oc1cc(O)c2c(c1)O[C@H](c1ccc(O)c(O)c1)[C@@H](O)C2.Oc1cc(O)c2c(c1)O[C@H](c1ccc(O)c(O)c1)[C@@H](O)C2 [1:2.5:2.5]
- ct, reported value on the curve in FIG. 5 ([1]; rat, in vivo, 25 mg/kg): 105 k ng min/ml

Compound: Cl.Cl.Cl.NCCCCC(N)C(=O)O.NCCCCC(N)C(=O)O.NCCCCC(N)C(=O)O.Oc1cc(O)c2c(c1)O[C@H](c1ccc(O)c(O)c1)[C@@H](O)C2 [1:3:3]
- ct, calculated value ([1]; rat, in vivo, 25 mg/kg): 38 k ng min/ml

Compound: Cl.Cl.Cl.Cl.Cl.NCCCCC(N)C(=O)O.NCCCCC(N)C(=O)O.NCCCCC(N)C(=O)O.NCCCCC(N)C(=O)O.NCCCCC(N)C(=O)O.Oc1cc(O)c2c(c1)O[C@H](c1ccc(O)c(O)c1)[C@@H](O)C2 [1:5:5]
- ct, calculated value ([1]; rat, in vivo, 25 mg/kg): 26 k ng min/ml

Compound: Cl.Cl.Cl.NCCCCC(N)C(=O)O.NCCCCC(N)C(=O)O.NCCCCC(N)C(=O)O.Oc1cc(O)c2c(c1)O[C@H](c1ccc(O)c(O)c1)[C@@H](O)C2.Oc1cc(O)c2c(c1)O[C@H](c1ccc(O)c(O)c1)[C@@H](O)C2 [C:Lys:HCl/1:1.5:1.5]
- ct, reported value on the curve in FIG. 5 ([1]; rat, in vivo, 25 mg/kg): 142 k ng min/ml

Compound: O=c1c(O)c(-c2ccc(O)c(O)c2)oc2cc(O)cc(O)c12 [QP, quercetin, reference compound]
- Δct^q (difference of ct to QP) ([1]; Wistar, rat, in vivo, 25 mg/kg): 0%

Compound: N=C(N)NCCCC(N)C(=O)O.Oc1cc(O)c2c(c1)O[C@H](c1ccc(O)c(O)c1)[C@@H](O)C2 [[C:Arg/1:1], Complex of Monomeric (+)-Catechin and of Arginine in a Molar Equivalence Ratio of 1:1]
- Δct (difference of ct to CP) ([1]; free catechin, per os, dose equivalent to 100 mg/kg catechin): +21%
- T (max) [1, 5]: 1 h

Compound: NCCCCC(N)C(=O)O.Oc1cc(O)c2c(c1)O[C@H](c1ccc(O)c(O)c1)[C@@H](O)C2 [[C:Lys/1:1], Complex of Monomeric (+)-Catechin and of Lysine in a Molar Equivalence Ratio of 1:1]
- T (max) [1, 5]: 1 h

Compound: NCCCCC(N)C(=O)O.NCCCCC(N)C(=O)O.Oc1cc(O)c2c(c1)O[C@H](c1ccc(O)c(O)c1)[C@@H](O)C2 [[C:Lys/1:2], Complex of Monomeric (+)-Catechin and of Lysine in a Molar Equivalence Ratio of 1:2]
- T (max) [1, 5]: 2 h
- Δct (difference of ct to CP) ([1]; free catechin, per os, equivalent to 25 mg/kg (comparative example 4)): +17%
- T (max) ([1]; free catechin, per os, equivalent to 25 mg/kg, 3 rats (comparative example 4)): 1 h
- Δct (difference of ct to CP) ([1]; total (+)-catechin, per os, equivalent to 25 mg/kg): +24%
- T (max) ([1]; total (+)-catechin, per os, equivalent to 25 mg/kg, 3 rats): 1 h

Compound: Cl.Cl.NCCCCC(N)C(=O)O.NCCCCC(N)C(=O)O.Oc1cc(O)c2c(c1)O[C@H](c1ccc(O)c(O)c1)[C@@H](O)C2 [[C:Lys:HCl/1:2:2]]
- total plasma concentration (ct) of free monomeric (+)-catechin ([1]; rat, in vivo, iv, 25 mg/kg): 87 970 ng min/ml
- total plasma concentration (ct) of total monomeric (+)-catechin ([1]; rat, in vivo, iv, 25 mg/kg): 277 040 ng min/ml
- total plasma concentration (ct) of total monomeric (+)-catechin ([1]; rat, in vivo, po, 25 mg/kg): 479 585 ng min/ml

Compound: Cl.Cl.NCCCCC(N)C(=O)O.NCCCCC(N)C(=O)O.O=c1c(O)c(-c2ccc(O)c(O)c2)oc2cc(O)cc(O)c12 [[Q:Lys:HCl/1:2:2], reference compound]
- Δct^q (difference of ct to QP) ([1]; rat, in vivo, 25 mg/kg): +18%

Compound: Cl.NCCCCC(N)C(=O)O.Oc1cc(O)c2c(c1)O[C@H](c1ccc(O)c(O)c1)[C@@H](O)C2 [monomeric (+)-catechin hydrochlorolysinate]
- increase in the level of incorporation versus control (rat skin): +15%
- level of incorporation into collagen (IC) of 3H-hydroxyproline in rat skin (rat skin): 1343 ± 48 dpm/mg
- level of total incorporation (IT) of 3H-hydroxyproline in rat skin (rat skin): 6248 ± 124 dpm/mg
- ct, reported value on the curve in FIG. 5 ([1]; rat, in vivo, 25 mg/kg): 127 k ng min/ml
- IgM level in the blood ([2]; first patient, DT + 4 months): 2417 mg/100 ml
- IgM level in the blood ([2]; first patient, DT + 9 months): 2410 mg/100 ml
- IgM level in the blood ([2]; first patient, DT + 15 months): 2412 mg/100 ml
- clinical course of IgM level under treatment ([2]; first patient, taken for a year and a half): stabilization below the maximum detected on day DT
- clinical outcome ([2]; second patient, clear cell renal carcinoma, 500 mg/day from DT): stabilized the patient's condition
- T (max) [3]: 0.5 h
- increase in c (max) compared with pure monomeric (+)-catechin [3]: +103%
- increase in speed of passage into blood, T (max), compared with pure monomeric (+)-catechin [3]: +166%
- histamine level (HL) in the gastric mucosa ([4]; G2, per os 2×300 mg a day): 37.91 ± 3.73 10^−6 mg/kg of protein
- number of animals exhibiting a gastric ulcer (NU) ([4]; G2, per os 2×300 mg a day): 5
- histamine level (HL) in the gastric mucosa ([4]; G3, intraperitoneally 100 mg): 34.98 ± 3.52 10^−6 mg/kg of protein
- number of animals exhibiting a gastric ulcer (NU) ([4]; G3, intraperitoneally 100 mg): 6
- decrease in the histamine level in the gastric mucosa [4, 6]: −18%
- decrease in the number of animals exhibiting a gastric ulcer [4, 6]: −72%

Compound: O=C(O[C@@H]1Cc2c(O)cc(O)cc2O[C@@H]1c1cc(O)c(O)c(O)c1)c1cc(O)c(O)c(O)c1 [pure EGCG, epigallocatechin gallate, reference compound]
- plasma levels measured (below reliable limits of detection) ([1]; free EGCG, per os, equivalent to 25 mg/kg polyphenol): below 250 ng/ml

Compound: monomeric (+)-catechin ascorbolysinate
- increase in the level of incorporation versus control (rat skin): +14%
- level of incorporation into collagen (IC) of 3H-hydroxyproline in rat skin (rat skin): 1117 ± 49 dpm/mg
- level of total incorporation (IT) of 3H-hydroxyproline in rat skin (rat skin): 5112 ± 259 dpm/mg
